Source: patent US5580854A, “Substrate-related peptidyl-aldehyde inhibitors of the proteolytic activity of the multicatalytic proteinase complex” (Mount Sinai School of Medicine of The City University of …, priority 1994, dated 1996)
Like-named read-outs stand apart in the source and are kept apart here. Peptide text beside a SMILES is read from it. * marks the point of attachment. Cbz = O=C(OCc1ccccc1)*

What was measured:
[1] = molecular target: T1, BrAAP component of the multicatalytic proteinase complex (MPC) (Bos taurus, UniProt Q2TBP0+Q32KL2+Q3MHN0); assay: Activity of the BrAAP component of the MPC, coupled two step reaction with aminopeptidase N; Ki by Dixon plots; assay type: biochemical, bovine
T1 construct: The MPC was isolated from frozen bovine pituitaries; tissue PelFreeze, Inc. (Rogers, Ark.) (supplier of the tissue; the enzyme was purified in house); host or cells: bovine pituitaries
Text: (§1) The MPC was isolated from frozen bovine pituitaries, obtained from PelFreeze, Inc. (Rogers, Ark.) essentially as described in Orlowski & Michaud, Biochemistry 28:9270-9277 (1989), incorporated herein by reference.
(§2) Cbz-Gly-Pro-Ala-Leu-Gly-pAB and Cbz-Gly-Pro-Ala-Gly-Gly-pAB, where pAB is p-aminobenzoate, were used as convenient substrates for the determination of the activity of the BrAAP and SNAAP components respectively. The BrAAP component cleaves exclusively the Leu-Gly bond in Cbz-Gly-Pro-Ala-Leu-Gly-pAB, whereas the SNAAP component cleaves the Gly-Gly bond in Cbz-Gly-Pro-Ala-Gly-Gly-pAB.
(§3) A coupled two step reaction in the presence of excess aminopeptidase N (AN) was used for the determination of the BrAAP and SNAAP activities as described previously (Orlowski et al., Biochemistry 32:1563-1572 (1993)). Aminopeptidase N was purified from hog kidneys as described by Pfleiderer, Meth. Enzymol. 19:514-521 (1970) and freed from the contaminating metalloendopeptidase (EC 3.4.24.11) as previously described (Almenoff & Orlowski, Biochemistry 22:590-599 (1983)).
(§4) Inhibition constant (K1) values for the inhibitors of the present invention towards the various proteolytic activities of the MPC were determined by the method of Dixon, Biochem. J. 55:170-171 (1953). Plots of 1/v vs [I] were made at three (3) different synthetic substrate concentrations and six (6) different inhibitor concentrations [I]. Linear regression analysis gave generally correlation coefficients better than 0.99.
(§5) Inhibition was tested with and without preincubation of the MPC with the inhibitors of the invention. No increase in inhibition was observed after preincubation of the enzyme with the inhibitor for up to 30 min, indicating absence of slow binding phenomena and a rapid equilibration between enzyme and inhibitor.
(§6) Table II provides a summary of the Ki measurements for the various peptidyl aldehydes of the invention synthesized in accordance with Examples 2 and 3.

[2] = molecular target: T2, SNAAP component of the multicatalytic proteinase complex (MPC) (Bos taurus, UniProt Q2TBP0+Q32KL2+Q3MHN0); assay: Activity of the SNAAP component of the MPC, coupled two step reaction with aminopeptidase N; Ki by Dixon plots; assay type: biochemical, bovine; conditions: substrate Cbz-Gly-Pro-Ala-Gly-Gly-pAB (1 to 4 mill); mean of 3 to 6 experiments ± SEM
T2 construct: The MPC was isolated from frozen bovine pituitaries; tissue PelFreeze, Inc. (Rogers, Ark.) (supplier of the tissue; the enzyme was purified in house); host or cells: bovine pituitaries
Text: as §1, §2, §3, §4, §5, §6

[3] = molecular target: T3, ChT-L component of the multicatalytic proteinase complex (MPC) (Bos taurus, UniProt Q32KL2); assay: ChT-L activity of the MPC with Cbz-Gly-Gly-Leu-pNA; Ki by Dixon plots; assay type: biochemical, bovine; conditions: for Ki: substrate Cbz-Gly-Gly-Leu-pNA (0.1 to 0.4 MM), mean of 3 to 6 experiments ± SEM
T3 construct: The MPC was isolated from frozen bovine pituitaries; tissue PelFreeze, Inc. (Rogers, Ark.) (supplier of the tissue; the enzyme was purified in house); host or cells: bovine pituitaries
Text: as §1
(§7) The substrates Cbz-Gly-Gly-Leu-pNA, Cbz-D-Ala-Leu-Arg-2NA and Cbz-Leu-Leu-Glu-2NA were used to determine the activities of the ChT-L, T-L and PGPH components of the MPC, respectively, as previously described by Wilk and Orlowski, J. Neurochem. 35:1172-1182 (1980) and J. Neurochem 40:842-849 (1983), where pNA is p-nitroaniline and 2NA is 2-naphthylamide.The rate of release of the chromogenic group (aromatic amine) was measured after diazotization (Goldbarg & Rutenburg, Cancer 11:283-291 (1958) Bratton & Marshall, J. Biol. Chem. 128:537-550 (1939)).
(§8) Reaction mixtures contained 0.4 to 0.8 mM substrate, Tris-HCl buffer (0.05M; pH 8.0) and enzyme (1 to 3 μg) in a final volume of 0.25 ml. Incubations were at 37° C. The reactions were stopped by addition of an equal volume of 10% trichloroacetic acid and diazotization was then carried out.
as §4, §5, §6

[4] = molecular target: T4, PGPH component of the multicatalytic proteinase complex (MPC) (Bos taurus, UniProt Q3MHN0); assay: PGPH activity of the MPC with Cbz-Leu-Leu-Glu-2NA; IC50; assay type: biochemical, bovine
T4 construct: The MPC was isolated from frozen bovine pituitaries; tissue PelFreeze, Inc. (Rogers, Ark.) (supplier of the tissue; the enzyme was purified in house); host or cells: bovine pituitaries
Text: as §1, §7, §8
Due to the sigmoidal relationship between reaction rate and substrate concentration for the PGPH activity, only IC50 values (inhibitor concentration giving 50% inhibition) at a substrate concentration of 0.64 mM were determined. […] Some inhibition of the ChT-L activity was also observed, although the Ki for this component was almost 20 times higher than that for the other three activities. […] Indeed, at the concentrations used, each of the inhibitors produced some activation of the T-L activity (data not shown).

[5] = molecular target: T5, multicatalytic proteinase complex (MPC) (Bos taurus, UniProt Q2TBP0+Q32KL2+Q3MHN0); assay: β-casein degradation by the MPC, HPLC; assay type: biochemical, bovine; conditions: for inhibition at 50 µM: 50 μM inhibitor, MPC 5.0 μg
T5 construct: The MPC was isolated from frozen bovine pituitaries; tissue PelFreeze, Inc. (Rogers, Ark.) (supplier of the tissue; the enzyme was purified in house); host or cells: bovine pituitaries
Method: as §1
(§9) In vitro protein degrading activity of the MPC, and the effects of the various inhibitors of the present invention on such activity, was determined using β-casein and histone H3 as proteolytic substrates. For determining protein degrading activity in the presence and absence of inhibitors, incubation mixtures contained Tris-HCl buffer (0.05M, pH 8.0), β-casein or histone H3, 20 mM Mg^2+ where indicated, and inhibitor dissolved in dimethylsulfoxide, where indicated. In control samples, the inhibitor was replaced by an equal volume of dimethylsulfoxide alone.
(§10) In order to measure proteolysis by the MPC, and its inhibition by the inhibitors of the invention, aliquots of the reaction mixtures were removed after various incubation times and subjected to HPLC on a Deltapak column (C4; 5 μm; 300 A; 3.9×150 mm Waters). Elution of histone H3 was carried out with a linear gradient over 30 min. established between 30 and 50% acetonitrile (v/v) in water containing 0.1% trifluoroacetic acid (v/v) at a flow rate of 1 ml/min. Elution of β-casein was carried with a linear gradient established between 10 and 45% acetonitrile (v/v) in water containing 0.1% trifluoroacetic acid (v/v). The rate of protein degradation was determined by measuring the decrease of the peak height of the protein compared with controls in which the enzyme was omitted. Alternatively degradation of the proteins was determined by integrating the area under the peak of the protein at time zero and determining the decrease of the area after incubation with the enzyme.
FIG. 1 depicts the inhibition of β-casein degradation by Cbz-Gly-Pro-Ala-Leu-CHO. HPLC analyses were carried out on samples that had been incubated in the absence and presence of the inhibitor. Incubation mixtures contained β-casein (200 μg), 20 mM Mg^2+, MPC (30 μg) and various concentrations of, inhibitor, if used, in 2 μl of Me2 SO. […]

[6] = molecular target: T5, multicatalytic proteinase complex (MPC); assay: Histone H3 degradation by the MPC, HPLC; assay type: biochemical, bovine; conditions: 50 μM inhibitor
Method: as §1, §9, §10
Histone H3 used for testing the proteolytic activity of MPC was purified from a crude histone VIII S fraction (obtained from Sigma Chemical Co. St. Louis, Mo.) by HPLC. The material was applied to a Delta Pak C4-300A semipreparative column (15 μm; 7.8 mm×300 mm) equilibrated with 30% acetonitrile (v/v) in water solution, containing 0.1% trifluoroacetic acid (v/v). Elution was carried out at a flow rate of 4 ml/min with a linear, 50 min. gradient established between 30% and 50% acetonitrile (v/v) in water, each containing 0.1% trifluoroacetic acetic acid (v/v). The main protein peak was collected and the solvent was removed under reduced pressure. The protein was dissolved in water at a concentration of 1.85 mg/ml and used for experiments. The purified histone H3 was subjected to HPLC on an analytical Deltapak column (C4; 5 μm; 300 A; 3.9×150 mm; Waters) with a linear gradient established between 30 and 50% acetonitrile (v/v) in water, containing 0.1% trifluoroacetic acid (v/v). […]

[7] = molecular target: T1, BrAAP component of the multicatalytic proteinase complex (MPC); conditions: cited from earlier work
[8] = molecular target: T4, PGPH component of the multicatalytic proteinase complex (MPC); conditions: cited from earlier work; for increase of the PGPH activity: low concentrations of SDS (0.02%) or fatty acids, depending on the substrate concentration
[9] = molecular target: T6, BRAAP component of the MPC (Bos taurus, UniProt Q2TBP0+Q32KL2+Q3MHN0); conditions: data from Orlowski et al., Biochemistry 32:1563-1572 (1993), cited from earlier work; for Km: [S] 1.6-8.0
T6 construct: The MPC was isolated from frozen bovine pituitaries; tissue PelFreeze, Inc. (Rogers, Ark.) (supplier of the tissue; the enzyme was purified in house); host or cells: bovine pituitaries

[10] = substrate Cbz-Gly-Pro-Ala-Leu-Gly-pAB (1 to 4 mill), mean of 3 to 6 experiments ± SEM, read-out: Ki, BRAAP component
[11] = substrate Cbz-Leu-Leu-Glu-2NA (0.2 to 0.6 mill), inhibitor concentration giving 50% inhibition, read-out: IC50, PGPH component

Molecule: CC(C)C[C@@H](C=O)NC(=O)[C@H](C)NC(=O)[C@@H]1CCCN1C(=O)CNC(=O)OCc1ccccc1 [Cbz-Gly-Pro-Ala-Leu-CHO] (Cbz-GPAL-aldehyde)
- Ki [1, 10]: 13.9 ± 1.9 µM
- Ki [2]: 17.2 ± 3.4 µM
- Ki [3]: 471 ± 48 µM
- IC50 [4, 11]: 60 µM
- β-casein substrate remaining intact ([5]; 200 μM inhibitor, 30 min incubation, β-casein 200 μg, 20 mM Mg2+, MPC 30 μg): ~90%

Molecule: C[C@H](NC(=O)[C@@H]1CCCN1C(=O)CNC(=O)OCc1ccccc1)C(=O)N[C@H](C=O)Cc1ccccc1 [Cbz-Gly-Pro-Ala-Phe-CHO] (Cbz-GPAF-aldehyde)
- Ki [1, 10]: 305 ± 77 µM
- Ki [2]: 406 ± 54 µM
- Ki [3]: 1850 ± 750 µM

Molecule: CC(C)C[C@@H](C=O)NC(=O)[C@H](Cc1ccccc1)NC(=O)[C@@H]1CCCN1C(=O)CNC(=O)OCc1ccccc1 [Cbz-Gly-Pro-Phe-Leu-CHO] (Cbz-GPFL-aldehyde)
- Ki ([1]; MPC exposed to DCI (10 μM), average of three determinations, read-out: Ki, BrAAP activity of the DCI-treated enzyme): 1.67 µM
- Ki [1, 10]: 1.5 ± 0.17 µM
- Ki [2]: 2.3 ± 0.24 µM
- Ki for ChT-L activity, times higher than that for the other three activities ([3]; ChT-L vs BrAAP, SNAAP, PGPH): ~20 times
- Ki [3]: 40.5 ± 8.8 µM
- IC50 ([4]; substrate concentration of 0.64 mM, absence of SDS, read-out: IC50, PGPH activity): 3.1 µM
- inhibition at 50 µM ([5]; β-casein 160 μg/ml, no Mg2+): 94%
- inhibition at 50 µM ([5]; β-casein 1000 μg/ml, 20 mM Mg2+): 89%
- inhibition at 50 µM ([6]; all histone H3 concentrations, read-out: inhibition of the rate of histone H3 degradation): ~80%
- inhibition at 50 µM ([6]; histone H3 185 μg/ml, MPC 2.5 μg, read-out: Inhibition, histone H3 degradation): 77%
- inhibition at 50 µM ([6]; histone H3 370 μg/ml, MPC 2.5 μg, read-out: Inhibition, histone H3 degradation): 76%
- inhibition at 50 µM ([6]; histone H3 740 μg/ml, MPC 2.5 μg, read-out: Inhibition, histone H3 degradation): 86%

Molecule: CC(C)[C@@H](C=O)NC(=O)[C@H](Cc1ccccc1)NC(=O)[C@@H]1CCCN1C(=O)CNC(=O)OCc1ccccc1 [Cbz-Gly-Pro-Phe-Val-CHO] (Cbz-GPFV-aldehyde)
- Ki [1, 10]: 47.3 ± 4.9 µM
- Ki [2]: 24 ± 0.84 µM
- Ki [3]: 331 ± 22 µM
- IC50 [4, 11]: 62 µM

Molecule: CC(C)C[C@@H](C=O)NC(=O)[C@H](C)NC(=O)CNC(=O)[C@@H]1CCCN1C(=O)OCc1ccccc1 [Cbz-Pro-Gly-Ala-Leu-CHO] (Cbz-PGAL-aldehyde)
- Ki [1, 10]: 104 ± 2.3 µM
- Ki [2]: 36.7 ± 3.6 µM
- Ki [3]: 16.4 ± 2.7 µM

Molecule: O=c1oc(Cl)c(Cl)c2ccccc12 [DCI, 3,4-dichloroisocoumarin]
- activation of the BrAAP component ([7]; treatment of the MPC with DCI (10 μM)): 10 fold
- inactivation of the PGPH activity ([8]; DCI (10 μM)): almost complete inactivation

Molecule: CCCCCCCCCCCCOS(=O)(=O)[O-].[Na+] [SDS, sodium dodecyl sulfate]
- activation of the BrAAP component ([7]; treatment of the MPC with SDS, synthetic substrates): ~50 fold
- increase of the PGPH activity [8]: ~10 fold

Molecule: CCCCCCCCCCCC(=O)O [lauric acid]
- increase of the PGPH activity [8]: ~10 fold

Molecule: Cbz-Gly-Pro-Ala-Leu-Ala-pAB
- Km [9]: 6.7 mM
- kcat [9]: 5.2 s⁻¹
- kcat /Km [9]: 780 M⁻¹ s⁻¹

Molecule: Cbz-Gly-Pro-Ala-Leu-Gly-p-aminobenzoate [Cbz-Gly-Pro-Ala-Leu-Gly-pAB]
- Km [9]: 5.2 mM
- kcat [9]: 3.75 s⁻¹
- kcat /Km [9]: 720 M⁻¹ s⁻¹
